Target: T1, Tyrosine-protein phosphatase non-receptor type 1 (Homo sapiens, UniProt P18031)
T1 sequence (P18031 whole entry): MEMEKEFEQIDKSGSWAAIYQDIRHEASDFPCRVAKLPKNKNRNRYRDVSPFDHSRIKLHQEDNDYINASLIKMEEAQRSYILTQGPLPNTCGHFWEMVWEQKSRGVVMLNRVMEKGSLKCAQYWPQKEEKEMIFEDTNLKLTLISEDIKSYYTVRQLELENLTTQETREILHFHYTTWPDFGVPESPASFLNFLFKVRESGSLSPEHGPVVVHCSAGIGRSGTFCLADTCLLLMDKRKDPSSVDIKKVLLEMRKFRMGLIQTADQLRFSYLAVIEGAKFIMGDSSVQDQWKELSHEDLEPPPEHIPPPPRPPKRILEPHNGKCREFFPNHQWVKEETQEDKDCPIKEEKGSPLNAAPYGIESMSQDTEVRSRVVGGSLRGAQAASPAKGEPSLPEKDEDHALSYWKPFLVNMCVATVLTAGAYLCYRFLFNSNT
Assay: Inhibition of PTP1B

IC50 [µM] | Compound
3.71 | O=C(O)c1cc2oc3c(Oc4ccc(-c5ccc(O)c(O)c5)cc4O)cc(O)cc3c2cc1O
1.7 | O=C(O)c1cc2oc3c(Oc4ccc(-c5ccc(OS(=O)(=O)O)c(O)c5)cc4O)cc(O)cc3c2cc1O

— ChEMBL document CHEMBL1141330, “Vanillic acid derivatives from the green algae Cladophora socialis as potent protein tyrosine phosphatase 1B inhibitors” (J Nat Prod, 2007)
